ChEMBL document CHEMBL2346567, “Selective aminopeptidase-N (CD13) inhibitors with relevance to cancer chemotherapy” (Bioorg Med Chem, 2013)
Active and inactive are the calls of the source. The calls are words filed in the database; no cut-off is given here.

What was measured:
[1] = Chemical stability of the compound in DMSO solution at 5 mg/ml after 20 days at -20 degC; format: physicochemical; settings: 480 h
[2] = system: HT-29; experiment: Antitumor activity against human HT-29 cells expressing low level of APN xenografted in athymic nude mouse at 30 mg/kg, ip administered once every 3 days relative to control; format: functional; settings: HT-29, ip, 72 h, route intraperitoneal, read-out: TGI
[3] = Antitumor activity against human colon cancer cells expressing high level of APN xenografted in athymic nude mouse at 30 mg/kg, ip administered once every 3 days relative to control; format: functional; settings: Cancer cell lines, 72 h, route intraperitoneal, read-out: TGI
[4] = system: A673; experiment: Antitumor activity against human A673 cells xenografted in athymic nude mouse assessed as tumor growth inhibition at 30 mg/kg, ip administered as single dose measured on day 26 relative to control; format: functional; settings: 624 h, route intraperitoneal, read-out: TGI
[5] = system: Mus musculus; experiment: Toxicity in Swiss nude mouse assessed as adverse effects at 40 mg/kg, ip administered once every 3 days 8 times measured after 29 days; format: organism-based; parameters: dose 40 mg/kg, route intraperitoneal; settings: in vivo, 696 h
[6] = molecular target: Collagenase 3 (Homo sapiens) (UniProt P45452); experiment: Inhibition of MMP13 (unknown origin) up to 50 uM
[7] = system: HUVEC; experiment: Antimigratory activity against human HUVEC cells after 16 hrs by wound healing assay; format: functional, cell-based
[8] = molecular target: Macrophage metalloelastase (Homo sapiens) (UniProt P39900); experiment: Inhibition of MMP12 (unknown origin) up to 50 uM
Chain of Macrophage metalloelastase (Homo sapiens) (P39900 106-470 limits assumed): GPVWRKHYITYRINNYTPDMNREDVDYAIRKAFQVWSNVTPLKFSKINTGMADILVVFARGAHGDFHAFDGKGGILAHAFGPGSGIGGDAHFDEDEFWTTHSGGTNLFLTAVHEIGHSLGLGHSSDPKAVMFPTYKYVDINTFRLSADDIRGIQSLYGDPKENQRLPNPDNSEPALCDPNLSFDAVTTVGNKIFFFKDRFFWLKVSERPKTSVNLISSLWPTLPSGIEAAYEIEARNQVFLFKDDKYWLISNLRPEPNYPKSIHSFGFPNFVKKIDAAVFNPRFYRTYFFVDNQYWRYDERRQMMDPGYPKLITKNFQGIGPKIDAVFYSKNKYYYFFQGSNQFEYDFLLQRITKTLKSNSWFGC

[9] = molecular target: T1, Stromelysin-3 (Homo sapiens) (UniProt P24347); experiment: Inhibition of MMP11 (unknown origin) up to 50 uM
T1 sequence (whole entry): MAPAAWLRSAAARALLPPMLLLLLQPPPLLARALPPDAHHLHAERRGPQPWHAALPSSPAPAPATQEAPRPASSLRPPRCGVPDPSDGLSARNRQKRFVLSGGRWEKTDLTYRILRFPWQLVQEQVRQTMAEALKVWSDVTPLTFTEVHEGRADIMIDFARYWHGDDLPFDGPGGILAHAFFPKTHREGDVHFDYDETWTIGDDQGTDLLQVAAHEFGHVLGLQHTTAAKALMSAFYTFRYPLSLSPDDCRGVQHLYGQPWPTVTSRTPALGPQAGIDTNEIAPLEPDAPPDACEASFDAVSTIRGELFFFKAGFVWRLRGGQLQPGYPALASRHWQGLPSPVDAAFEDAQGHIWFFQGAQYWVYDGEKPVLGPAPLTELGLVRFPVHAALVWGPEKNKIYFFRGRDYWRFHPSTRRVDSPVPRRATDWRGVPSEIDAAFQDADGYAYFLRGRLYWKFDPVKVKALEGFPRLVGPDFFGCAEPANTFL

[10] = molecular target: T2, Aminopeptidase N (Mus musculus, UniProt P97449); experiment: Inhibition of mouse APN using L-leucine-p-nitroanilide as substrate measured every 10 mins for 2 hrs by spectrophotometric analysis
T2 sequence (P97449 whole entry): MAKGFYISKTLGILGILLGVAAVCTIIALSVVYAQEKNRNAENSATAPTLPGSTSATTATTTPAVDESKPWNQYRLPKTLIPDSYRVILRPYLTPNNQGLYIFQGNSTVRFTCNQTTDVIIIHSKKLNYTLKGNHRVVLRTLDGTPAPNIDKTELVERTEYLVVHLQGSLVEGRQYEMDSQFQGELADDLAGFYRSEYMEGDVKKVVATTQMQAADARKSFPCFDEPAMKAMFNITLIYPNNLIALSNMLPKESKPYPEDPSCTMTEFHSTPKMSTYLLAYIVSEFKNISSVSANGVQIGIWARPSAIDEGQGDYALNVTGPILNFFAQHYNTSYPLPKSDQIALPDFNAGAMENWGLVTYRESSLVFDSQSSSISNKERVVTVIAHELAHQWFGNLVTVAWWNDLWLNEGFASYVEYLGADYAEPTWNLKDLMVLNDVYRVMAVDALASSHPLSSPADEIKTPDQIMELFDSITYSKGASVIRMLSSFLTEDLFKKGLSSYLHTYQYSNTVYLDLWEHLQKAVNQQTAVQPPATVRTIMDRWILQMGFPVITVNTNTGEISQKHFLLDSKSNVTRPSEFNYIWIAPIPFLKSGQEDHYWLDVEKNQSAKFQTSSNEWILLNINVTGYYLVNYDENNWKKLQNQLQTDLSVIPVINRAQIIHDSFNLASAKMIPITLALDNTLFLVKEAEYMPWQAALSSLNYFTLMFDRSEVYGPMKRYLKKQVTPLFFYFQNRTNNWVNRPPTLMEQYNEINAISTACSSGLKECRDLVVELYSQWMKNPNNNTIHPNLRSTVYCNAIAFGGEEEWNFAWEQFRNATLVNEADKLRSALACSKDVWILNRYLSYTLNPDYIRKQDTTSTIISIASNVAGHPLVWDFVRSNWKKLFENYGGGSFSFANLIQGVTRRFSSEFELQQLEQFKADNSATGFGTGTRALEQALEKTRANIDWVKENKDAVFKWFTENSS

[11] = Antimigratory activity against human Caco2/TC7 cells at 1 uM after 16 hrs by wound healing assay; format: functional, Caco-2
[12] = Antitumor activity against human colon cancer cells expressing low level of APN xenografted in athymic nude mouse at 30 mg/kg, ip administered once every 3 days relative to control; format: functional; settings: Cancer cell lines, 72 h, route intraperitoneal, read-out: TGI
[13] = Cytotoxicity against human HUVEC cells assessed as concentration of compound causing 50% cell death after 24 hrs; format: cell-based; settings: read-out: Activity
[14] = system: Caco-2; experiment: Antimigratory activity against human Caco2/TC7 cells after 16 hrs by wound healing assay; format: functional, cell-based
[15] = system: HUVEC; experiment: Antiangiogenic activity against human HUVEC cells assessed as inhibition of capillary tube formation at 1 uM after 24 hrs by phase contrast microscopic analysis; format: functional, cell-based
[16] = Chemical stability of the compound in DMSO solution at 5 mg/ml after 20 days at 25 degC; format: physicochemical; settings: 480 h
[17] = Chemical stability of the compound in DMSO solution at 5 mg/ml after 20 days at 4 degC; format: physicochemical; settings: 480 h
[18] = system: HUVEC; experiment: Antimigratory activity against human HUVEC cells at 0.01 uM after 16 hrs by wound healing assay; format: functional, cell-based
[19] = system: HUVEC; experiment: Antimigratory activity against human HUVEC cells assessed as inhibition of VEGF-induced migration at 1 uM after 16 hrs by Boyden chamber assay; format: functional
[20] = system: HUVEC; experiment: Antimigratory activity against human HUVEC cells at 0.1 to 1 uM after 16 hrs by wound healing assay; format: functional, cell-based
[21] = molecular target: 72 kDa type IV collagenase (Homo sapiens) (UniProt P08253); experiment: Inhibition of MMP2 (unknown origin) up to 50 uM
Chain of 72 kDa type IV collagenase (Homo sapiens) (P08253 110-660 limits assumed): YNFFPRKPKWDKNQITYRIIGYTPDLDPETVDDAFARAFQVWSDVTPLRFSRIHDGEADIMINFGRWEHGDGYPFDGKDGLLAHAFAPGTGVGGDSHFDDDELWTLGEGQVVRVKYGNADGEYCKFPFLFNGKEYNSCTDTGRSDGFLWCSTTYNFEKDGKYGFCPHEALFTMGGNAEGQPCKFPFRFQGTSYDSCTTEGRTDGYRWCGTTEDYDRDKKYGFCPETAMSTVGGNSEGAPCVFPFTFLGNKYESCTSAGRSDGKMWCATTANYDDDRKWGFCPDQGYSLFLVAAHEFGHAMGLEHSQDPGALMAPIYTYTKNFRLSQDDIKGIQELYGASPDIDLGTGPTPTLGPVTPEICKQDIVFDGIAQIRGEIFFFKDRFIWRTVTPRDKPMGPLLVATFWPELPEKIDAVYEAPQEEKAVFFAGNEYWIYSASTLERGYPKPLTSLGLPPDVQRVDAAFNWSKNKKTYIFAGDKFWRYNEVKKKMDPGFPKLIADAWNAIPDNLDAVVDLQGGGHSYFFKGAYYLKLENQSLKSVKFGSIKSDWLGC

[22] = molecular target: Matrix metalloproteinase-9 (Homo sapiens) (UniProt P14780); experiment: Inhibition of MMP9 (unknown origin) up to 50 uM
Chain of Matrix metalloproteinase-9 (Homo sapiens) (P14780 whole entry): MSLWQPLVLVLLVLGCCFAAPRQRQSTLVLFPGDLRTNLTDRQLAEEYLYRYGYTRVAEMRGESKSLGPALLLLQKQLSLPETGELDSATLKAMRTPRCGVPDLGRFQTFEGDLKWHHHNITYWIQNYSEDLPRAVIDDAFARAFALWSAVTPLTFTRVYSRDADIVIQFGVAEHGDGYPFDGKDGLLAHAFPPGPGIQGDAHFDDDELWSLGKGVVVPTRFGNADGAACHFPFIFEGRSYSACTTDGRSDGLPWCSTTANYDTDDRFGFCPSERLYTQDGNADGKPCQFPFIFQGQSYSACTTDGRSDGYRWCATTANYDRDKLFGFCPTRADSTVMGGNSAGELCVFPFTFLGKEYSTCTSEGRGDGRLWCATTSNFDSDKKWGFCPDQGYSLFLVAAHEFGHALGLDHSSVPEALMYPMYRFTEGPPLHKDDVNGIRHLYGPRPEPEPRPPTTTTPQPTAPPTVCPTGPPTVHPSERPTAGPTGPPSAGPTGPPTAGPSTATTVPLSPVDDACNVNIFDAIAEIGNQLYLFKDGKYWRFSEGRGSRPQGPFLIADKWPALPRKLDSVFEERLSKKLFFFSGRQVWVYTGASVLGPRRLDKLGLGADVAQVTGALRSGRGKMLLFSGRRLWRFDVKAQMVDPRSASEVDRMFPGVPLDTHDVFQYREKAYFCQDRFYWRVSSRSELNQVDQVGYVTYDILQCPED

[23] = Antimigratory activity against human Caco2/TC7 cells at 0.1 uM after 16 hrs by wound healing assay; format: functional, Caco-2
[24] = system: A673; experiment: Antiangiogenic activity against human A673 cells xenografted in athymic nude mouse assessed as reduction in microvessel density at 30 mg/kg, ip administered as single dose measured on day 26 relative to control; format: functional, organism-based; parameters: dose 30 mg/kg
[25] = system: HUVEC; experiment: Antiangiogenic activity against human HUVEC cells assessed as inhibition of capillary tube formation at 10 uM after 24 hrs by phase contrast microscopic analysis; format: functional, cell-based
[26] = molecular target: Aminopeptidase N (Homo sapiens, UniProt P15144)
Chain of Aminopeptidase N (Homo sapiens, UniProt P15144) (P15144 whole entry): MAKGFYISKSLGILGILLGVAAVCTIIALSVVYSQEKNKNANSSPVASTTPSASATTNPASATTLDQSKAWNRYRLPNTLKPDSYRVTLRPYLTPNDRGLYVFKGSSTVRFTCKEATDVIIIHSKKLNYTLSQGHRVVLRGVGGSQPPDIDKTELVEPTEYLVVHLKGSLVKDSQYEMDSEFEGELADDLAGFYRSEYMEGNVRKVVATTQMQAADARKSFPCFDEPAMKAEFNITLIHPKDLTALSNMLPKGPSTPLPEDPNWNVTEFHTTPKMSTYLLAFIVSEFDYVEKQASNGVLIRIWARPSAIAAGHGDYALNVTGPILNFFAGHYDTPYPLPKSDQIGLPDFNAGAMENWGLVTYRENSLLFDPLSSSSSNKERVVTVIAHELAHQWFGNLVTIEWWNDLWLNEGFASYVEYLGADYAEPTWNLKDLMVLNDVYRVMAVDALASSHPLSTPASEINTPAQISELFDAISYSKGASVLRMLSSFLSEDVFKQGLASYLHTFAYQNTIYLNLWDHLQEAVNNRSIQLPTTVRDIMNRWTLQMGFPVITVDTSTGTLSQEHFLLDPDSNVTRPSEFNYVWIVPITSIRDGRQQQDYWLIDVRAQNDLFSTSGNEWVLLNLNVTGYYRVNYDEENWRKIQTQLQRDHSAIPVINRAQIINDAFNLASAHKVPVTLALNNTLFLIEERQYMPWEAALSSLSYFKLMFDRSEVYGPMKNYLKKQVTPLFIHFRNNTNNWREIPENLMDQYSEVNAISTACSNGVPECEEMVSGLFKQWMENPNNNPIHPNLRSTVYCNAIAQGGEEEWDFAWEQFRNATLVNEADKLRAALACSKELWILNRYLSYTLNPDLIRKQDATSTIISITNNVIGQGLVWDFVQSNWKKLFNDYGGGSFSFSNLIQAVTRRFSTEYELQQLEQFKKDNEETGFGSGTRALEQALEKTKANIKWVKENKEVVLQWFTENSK
Description: Inhibition of human APN using L-leucine-p-nitroanilide as substrate measured every 10 mins for 2 hrs by spectrophotometric analysis

[27] = system: HUVEC; experiment: Antiangiogenic activity against human HUVEC cells assessed as inhibition of capillary tube formation at 300 uM after 24 hrs by phase contrast microscopic analysis; format: functional, cell-based
[28] = system: A673; experiment: Antiangiogenic activity against human A673 cells xenografted in athymic nude mouse assessed as reduction in microvessel density at 40 mg/kg, ip administered as single dose measured on day 26 relative to control; format: functional, organism-based; parameters: dose 40 mg/kg
[29] = system: A673; experiment: Antitumor activity against human A673 cells xenografted in athymic nude mouse assessed as tumor growth inhibition at 40 mg/kg, ip administered as single dose measured on day 26 relative to control; format: functional; settings: 624 h, route intraperitoneal, read-out: TGI
[30] = system: Caco-2; experiment: Antimigratory activity against human Caco2/TC7 cells up to 1 uM after 16 hrs by wound healing assay; format: functional, cell-based
[31] = system: Mus musculus; experiment: Toxicity in Swiss nude mouse assessed as catalepsy at 70 mg/kg, ip administered once every 3 days 8 times measured post second-dose; format: organism-based; parameters: dose 70 mg/kg, route intraperitoneal; settings: in vivo, 72 h
[32] = system: Mus musculus; experiment: Toxicity in Swiss nude mouse assessed as transient body weight loss at 100 mg/kg, ip measured up to 2 days relative to control; format: organism-based; parameters: dose 100 mg/kg, route intraperitoneal; settings: in vivo, 48 h
[33] = system: HUVEC; experiment: Antimigratory activity against human HUVEC cells assessed as inhibition of VEGF-induced migration at 0.1 uM after 16 hrs by Boyden chamber assay; format: functional
[34] = system: Mus musculus; experiment: Toxicity in Swiss nude mouse assessed as convulsions at 100 mg/kg, ip administered once every 3 days 4 times measured post second-dose; format: organism-based; parameters: dose 100 mg/kg, route intraperitoneal; settings: in vivo, 72 h

| Structure (SMILES) | Stability [1] | Activity [5] | inhibition [6] | Activity [7] | inhibition [8] | inhibition [9] | Ki [10] [µM] | CC50 at 24 h [13] [µM] | Activity [14] | inhibition [15] | Stability [16] | Stability [17] | Activity [20] | inhibition [21] | inhibition [22] | Ki [26] [µM] | other results |
| --- | --- | --- | --- | --- | --- | --- | --- | --- | --- | --- | --- | --- | --- | --- | --- | --- | --- |
| NC1CCc2c(Br)ccc(-c3ccccc3)c2CC1=O (stereo unspecified) | Stable | Non-toxic | inactive | Dose-dependent effect | inactive | inactive | 0.0002 | 10 | Dose-dependent effect | Active | Stable | Stable | Active | inactive | inactive | – | inhibition in vivo at 30 mg/kg [2]: 15%; inhibition in vivo at 30 mg/kg [3]: 26%; inhibition in vivo at 30 mg/kg [4]: 44%; Activity [11]: 40%; inhibition in vivo at 30 mg/kg [12]: 8%; Activity [18]: Active; inhibition at 1 µM [19]: 70%; Activity [23]: 30%; Activity [24]: Active |
| NC1CCc2ccccc2CC1=O (stereo unspecified) | – | – | inactive | – | inactive | inactive | – | 100 | – | – | – | – | – | inactive | inactive | 2 | inhibition [25]: Active |
| CC(C)C[C@H](NC(=O)[C@@H](O)[C@H](N)Cc1ccccc1)C(=O)O | – | – | – | – | – | – | – | – | – | – | – | – | – | – | – | – | inhibition [27]: Active |
| Cl.NC1CCc2cccc(-c3ccccc3)c2CC1=O (stereo unspecified) | Stable | Non-toxic | inactive | Dose-dependent effect | inactive | inactive | 0.01 | 20 | Dose-dependent effect | Active | Stable | Stable | Active | inactive | inactive | 0.011 | Activity [28]: inactive; inhibition in vivo at 40 mg/kg [29]: 18%; Activity [30]: inactive; Activity [31]: Toxic; Activity [32]: Toxic; inhibition at 0.1 µM [33]: 70%; Activity [34]: Toxic |
